Experimental findings from EPA's ToxValDB 9.5 (doi:10.2903/j.efsa.2009.179r) are described below.

The test system of one data set is Aphidius rhopalosiphi. In words: LR50; higher = less toxic. To be noted: not reported; mortality.
A further data set deals with Canidae. To be noted: Dog Other, clinical signs.
The next data set deals with Rattus norvegicus. To be noted: reproduction developmental.
For a further data set, the system named is Daphnia magna. Particulars: chronic/long-term; duration: 21 days; reproduction.
Another data set relates to Oryctolagus sp. To be noted: acute; oral; mortality.
The next data set concerns Apis mellifera. To be noted: acute; duration: 48 hours; dermal; mortality.

`C[N+](C)(C)CCCl.[Cl-]` [Chlormequat chloride]: the LR50 in the data set with Aphidius rhopalosiphi is > 2200 g/ha. In addition, the NOAEL (as a rule, the highest dose or exposure tested at which no adverse effect was seen) came to 4 mg/kg-day in the data set with Canidae (chronic, duration: 1 years, oral); 9 mg/kg-day in the data set on Canidae (short-term, duration: 4 weeks); 41 mg/kg-day in the data set with Rattus norvegicus (body weight); 74 mg/kg-day in the data set on Rattus norvegicus (reproduction). Moreover, the LC50 in the data set with Tagia sp. (acute, duration: 14 days, mortality) is 320 mg/kg; in the data set on Coturnix japonica (acute, oral, diet, mortality) it was > 310 mg/kg-day; in the data set with Oncorhynchus mykiss (acute, duration: 96 hours, mortality), > 100 µg/mL. The NOEC was 680 mg/kg in the data set with Tagia sp. (chronic/long-term, duration: 56 days); 54.8 mg/kg-day with Coturnix japonica (reproduction developmental); 2.4 mg/L in the data set with Daphnia magna; 43.1 mg/L in the data set on Oncorhynchus mykiss (chronic/long-term, duration: 21 days, growth). Moreover, the LD50 in the data set on Coturnix japonica (acute, oral, mortality) is 441 mg/kg-day; in the data set with Oryctolagus sp. it was 115 mg/kg-day; in the data set on Apis mellifera it was > 65.2 µg/piece.
